# Laboratory results: patent US20050009005A1, “Methods of using quantitative lipid metabolome data” (Lipomics Technologies, Inc., priority 2001, published 2005)
# Test system: de novo fatty acid synthesis
# Experiment: Lipid metabolite profile of plasma, heart, liver and inguinal adipose of CL316,243-treated mice (trial 2; Tables 7 and 8)
# Type: in vivo
# Conditions: Liver, mean
# Source text: It is understood that the described methods can be used to analyze lipid metabolites from other subjects, including particularly animals other than mice.
# Mouse tissue and plasma samples were a generous donation to Lipomics Technologies, Inc., from Dr. Edward Leiter of the Jackson Laboratory (Bar Harbor, Me.). Samples included the plasma, heart, liver and inguinal adipose of mice treated with pharmaceuticals or their corresponding controls.
# In trial 2, male, inbred NON mice were fed a control with or without the presence of the β-3 adrenergic agonist CL316,243 for four weeks (at 0.001% CL316,243 by weight in the dietary chow).
# In both studies, five treated and five control mice were used. Following the treatments and the killing of the mice, tissues and plasma were taken, chilled to −80 ° C. and shipped to the analysis laboratory at Lipomics Technologies in a frozen state.
# Tissue processing and lipid extraction, including provision of internal standards, was carried out essentially as described in Watkins et al. (J. Lipid Res. Papers in Press, 10.1184/jlf.M200169-JLF200, published August 16, 2002), and in co-owned international application PCT/US02/21426, entitled “GENERATING, VIEWING, INTERPRETING, AND UTILIZING A QUANTITATIVE DATABASE OF METABOLITES,” both of which are incorporated in their entirety herein by reference.
# The separation of lipid classes was performed in some instance by preparative thin-layer chromatography (TLC). To remove any residual metal or other damaging contaminants on the TLC plates, each plate was washed prior to use. Washing the plates is a three-step process that involves impregnating each plate with ethylenediamine tetraacetic acid (EDTA) and rinsing the plates once with methanol and once with chloroform. Each plate is first impregnated with 1 mM EDTA, pH 5.5, by ascending development using the method of Ruiz (J. Lipid Res. 38, 1482-1489, 1997). After each plate was completely developed, it was dried in air overnight. Once dry, each plate was developed in methanol, dried, and developed in chloroform in the same direction as the development with EDTA. The washed plates were then dried in air. Just prior to use, each plate was activated by heating to 110° C. for 10 minutes.
# To prepare the TLC chamber for chromatography, Whatman (Clifton, N.J.) filter paper was cut into 20×80-cm strips and wrapped around the inside wall of a 30×60×10-cm glass development chamber. One hundred milliliters of the appropriate mobile phase was added to the chamber, and the chambers were sealed and allowed to equilibrate. Chambers were considered equilibrated when the solvent front had completely ascended the filter paper. The mobile phase employed for the separation of phospholipid classes (lyso-phospholipids, sphingomyelin, phosphatidylcholine, phosphatidylserine, phosphatidylethanolamine and cardiolipin) was a modification of the solvent system described by Holub and Skeaf (“Nutritional regulation of cellular phosphatidylinositol,” in Methods in Enzymology, ed. Conn, P. M. (Academic Press, Inc., Orlando), pp. 234-243, 1987) consisting of chloroform/methanol/acetic acid/water (100:67:7:4, by volume).
# For the separation of neutral lipid classes (free fatty acids, free sterols, triacylglycerides and cholesterol esters), a solvent system consisting of petroleum ether/diethyl ether/acetic acid (80:20:1, by volume) was used (Mangold, Thin Layer Chromatography—A Laboratory Handbook (Springer-Verlag, New York), 1969).
# After the TLC plate was activated, the sample extracts were spotted onto the activated plate. As a general rule, samples were spotted at an estimated concentration such that no single lipid class was present at more than 25 jig per centimeter of plate width following chromatography. This ensured that the plate was not overloaded and minimized the risk of cross-contamination between lipid classes (cross-contamination is readily identified during sample analysis as each lipid class contains unique internal standards). […]
compound,measurement,setting,value
"C[C@H](Cc1ccc2c(c1)OC(C(=O)[O-])(C(=O)[O-])O2)NC[C@H](O)c1cccc(Cl)c1.[Na+].[Na+] [CL316,243]",Total nMole of FA,FFA,9555.8 nanomoles per gram
same,14:0,PC,69.0 nanomoles per gram
same,16:0,PC,11221.7 nanomoles per gram
same,16:1n7,PC,358.8 nanomoles per gram
same,18:0,PC,5889.5 nanomoles per gram
same,18:1n7,PC,741.3 nanomoles per gram
same,18:1n9,PC,3855.0 nanomoles per gram
same,Saturates,PC,17292.7 nanomoles per gram
same,Total n7,PC,1100.1 nanomoles per gram
same,Total n9,PC,3964.0 nanomoles per gram
same,Total nMole of FA,PC,19052.2 nanomoles per gram
same,14:0,PE,13.1 nanomoles per gram
same,16:0,PE,4406.0 nanomoles per gram
same,16:1n7,PE,117.9 nanomoles per gram
same,18:0,PE,3777.4 nanomoles per gram
same,18:1n7,PE,247.4 nanomoles per gram
same,18:1n9,PE,1320.6 nanomoles per gram
same,Saturates,PE,8245.4 nanomoles per gram
same,Total n7,PE,365.3 nanomoles per gram
same,Total n9,PE,1376.1 nanomoles per gram
same,Total nMole of FA,PE,9924.9 nanomoles per gram
same,14:0,PL,91.0 nanomoles per gram
same,16:0,PL,16120.7 nanomoles per gram
same,16:1n7,PL,586.5 nanomoles per gram
same,18:0,PL,12438.5 nanomoles per gram
same,18:1n7,PL,1242.7 nanomoles per gram
same,18:1n9,PL,5839.1 nanomoles per gram
same,Saturates,PL,29247.6 nanomoles per gram
same,Total n7,PL,1829.2 nanomoles per gram
same,Total n9,PL,6261.0 nanomoles per gram
same,Total nMole of FA,PL,34731.4 nanomoles per gram
same,14:0,PS/I,19.9 nanomoles per gram
same,16:0,PS/I,898.1 nanomoles per gram
same,16:1n7,PS/I,37.8 nanomoles per gram
same,18:0,PS/I,4313.9 nanomoles per gram
same,18:1n7,PS/I,100.2 nanomoles per gram
same,18:1n9,PS/I,486.8 nanomoles per gram
same,Saturates,PS/I,5283.6 nanomoles per gram
same,Total n7,PS/I,138.0 nanomoles per gram
same,Total n9,PS/I,607.6 nanomoles per gram
same,Total nMole of FA,PS/I,5625.0 nanomoles per gram
same,14:0,TAG,207.9 nanomoles per gram
same,16:0,TAG,6580.5 nanomoles per gram
same,16:1n7,TAG,675.6 nanomoles per gram
same,18:0,TAG,668.7 nanomoles per gram
same,18:1n7,TAG,619.4 nanomoles per gram
same,18:1n9,TAG,7123.9 nanomoles per gram
same,Saturates,TAG,7585.2 nanomoles per gram
same,Total n7,TAG,1295.0 nanomoles per gram
same,Total n9,TAG,7280.9 nanomoles per gram
same,Total nMole of FA,TAG,6910.6 nanomoles per gram
same,14:0,lipid class CE,2.5 percentage of total fatty acids
same,16:0,lipid class CE,27.3 percentage of total fatty acids
same,16:1n7,lipid class CE,4.9 percentage of total fatty acids
same,18:0,lipid class CE,7.1 percentage of total fatty acids
same,18:1n7,lipid class CE,1.8 percentage of total fatty acids
same,18:1n9,lipid class CE,25.4 percentage of total fatty acids
same,Saturates,lipid class CE,39.0 percentage of total fatty acids
same,Total,lipid class CE,100.0 percentage of total fatty acids
same,Total n7,lipid class CE,6.7 percentage of total fatty acids
same,Total n9,lipid class CE,26.9 percentage of total fatty acids
same,14:0,lipid class CL,0.4 percentage of total fatty acids
same,16:0,lipid class CL,4.9 percentage of total fatty acids
same,16:1n7,lipid class CL,1.5 percentage of total fatty acids
same,18:0,lipid class CL,4.7 percentage of total fatty acids
same,18:1n7,lipid class CL,4.4 percentage of total fatty acids
same,18:1n9,lipid class CL,8.7 percentage of total fatty acids
same,Saturates,lipid class CL,10.4 percentage of total fatty acids
same,Total,lipid class CL,25.0 percentage of total fatty acids
same,Total n7,lipid class CL,5.9 percentage of total fatty acids
same,Total n9,lipid class CL,9.4 percentage of total fatty acids
same,14:0,lipid class FFA,1.6 percentage of total fatty acids
same,16:0,lipid class FFA,24.0 percentage of total fatty acids
same,16:1n7,lipid class FFA,3.9 percentage of total fatty acids
same,18:0,lipid class FFA,4.9 percentage of total fatty acids
same,18:1n7,lipid class FFA,2.8 percentage of total fatty acids
same,18:1n9,lipid class FFA,23.7 percentage of total fatty acids
same,Saturates,lipid class FFA,31.2 percentage of total fatty acids
same,Total,lipid class FFA,100.0 percentage of total fatty acids
same,Total n7,lipid class FFA,6.7 percentage of total fatty acids
same,Total n9,lipid class FFA,24.2 percentage of total fatty acids
same,14:0,lipid class PC,0.2 percentage of total fatty acids
same,16:0,lipid class PC,29.4 percentage of total fatty acids
same,16:1n7,lipid class PC,0.9 percentage of total fatty acids
same,18:0,lipid class PC,15.5 percentage of total fatty acids
same,18:1n7,lipid class PC,1.9 percentage of total fatty acids
same,18:1n9,lipid class PC,10.1 percentage of total fatty acids
same,Saturates,lipid class PC,45.4 percentage of total fatty acids
same,Total,lipid class PC,50.0 percentage of total fatty acids
same,Total n7,lipid class PC,2.9 percentage of total fatty acids
same,Total n9,lipid class PC,10.4 percentage of total fatty acids
same,14:0,lipid class PE,0.1 percentage of total fatty acids
same,16:0,lipid class PE,22.2 percentage of total fatty acids
same,16:1n7,lipid class PE,0.6 percentage of total fatty acids
same,18:0,lipid class PE,19.1 percentage of total fatty acids
same,18:1n7,lipid class PE,1.2 percentage of total fatty acids
same,18:1n9,lipid class PE,6.6 percentage of total fatty acids
same,Saturates,lipid class PE,41.5 percentage of total fatty acids
same,Total,lipid class PE,50.0 percentage of total fatty acids
same,Total n7,lipid class PE,1.8 percentage of total fatty acids
same,Total n9,lipid class PE,6.9 percentage of total fatty acids
same,14:0,lipid class PL,0.1 percentage of total fatty acids
same,16:0,lipid class PL,23.2 percentage of total fatty acids
same,16:1n7,lipid class PL,0.8 percentage of total fatty acids
same,18:0,lipid class PL,17.9 percentage of total fatty acids
same,18:1n7,lipid class PL,1.8 percentage of total fatty acids
same,18:1n9,lipid class PL,8.4 percentage of total fatty acids
same,Saturates,lipid class PL,42.1 percentage of total fatty acids
same,Total,lipid class PL,50.0 percentage of total fatty acids
same,Total n7,lipid class PL,2.6 percentage of total fatty acids
same,Total n9,lipid class PL,9.0 percentage of total fatty acids
same,14:0,lipid class PS/I,0.2 percentage of total fatty acids
same,16:0,lipid class PS/I,8.0 percentage of total fatty acids
same,16:1n7,lipid class PS/I,0.3 percentage of total fatty acids
same,18:0,lipid class PS/I,38.4 percentage of total fatty acids
same,18:1n7,lipid class PS/I,0.9 percentage of total fatty acids
same,18:1n9,lipid class PS/I,4.3 percentage of total fatty acids
same,Saturates,lipid class PS/I,47.0 percentage of total fatty acids
same,Total,lipid class PS/I,50.0 percentage of total fatty acids
same,Total n7,lipid class PS/I,1.2 percentage of total fatty acids
